Test results reported in patent US20180273531A1, “PYRIMIDINE COMPOUND AND MEDICAL USE THEREOF” (Japan Tobacco Inc., priority 2004, published 2018).

Tests used:
Format in all cases: cell-based
[1] = test system: colorectal cancer cell line HT-29 cells; assay: Growth inhibitory effect against cancer cell lines (3H-thymidine uptake), HT-29; details: test substance 18 hrs, then 3H-thymidine 6 hrs, triplicate
Outline: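 Cells seeded at 1.0×10^4/well, grown 24 hrs, then exposed to compound in DMSO for 18 hrs before 6 hrs pulse with ^3H-thymidine (0.25 μCi/well). Harvested cell-incorporated radioactivity counted; IC50 is the concentration halving uptake versus DMSO control, triplicate.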

[2] = test system: p15 protein; assay: Evaluation of p15 induction activity (Western blotting); details: test substance 0.1 μM, 24 hrs, ACHN cells or HT-29 cells, compared to DMSO, n=2
Experimental: (§1) ACHN cells or HT-29 cells were cultured in a 6 well plate at 2.5×10^5 cells/1.8 mL/well for 24 hrs, then a test substance (0.1 μM) dissolved in DMSO was added. After 24 hrs, cells were detached using trypsin-EDTA (ethylene diamine tetraacetic acid) and solubilized with NuPAGE LDS sample buffer (Invitrogen). Using an RC DC protein assay kit (BIO-RAD), the protein concentration of the sample was quantitated, and a sample in an amount corresponding to 10 μg of BSA (bovine serum albumin) was analyzed by Western blotting using an anti-p15 antibody. The density of the band stained with the anti-p15 antibody was measured by a densitometer to quantify the amount of p15 protein. As a control, DMSO was used and the test was performed with n=2 and the average protein amount was determined.

[3] = test system: p27 protein; assay: p27 protein induction test (Western blotting); details: test substance (0.1 1M), 24 hrs, ACHN cells or HT-29 cells, compared to DMSO, n=2
Experimental: as §1, with “hrs,” for “hrs, then”, “[…])” for “μM)”, “anti-p27” for “anti-p15”, “p27” for “p15”

[4] = test system: Renal cancer cell line ACHN cell; assay: Growth inhibitory effect against cancer cell lines (3H-thymidine uptake), ACHN
Experimental: Renal cancer cell line ACHN cell or colorectal cancer cell line HT-29 cells were cultured in a 96 well plate at 1.0×10^4 cells/90 μL/well for 24 hrs, then a test substance dissolved in DMSO (dimethyl sulfoxide) was added. After 18 hrs, ^3H-thymidine (0.25 μCi/well) was added and the cells were cultured for 6 hrs. Using a cell harvester, the cells were recovered on a UniFilter-96 GF/B glass filter and the ^3H radioactivity uptaken by the cells was measured by TopCount (Packard). As a control, DMSO was used and the activity of the test substance was expressed in the concentration (IC50) necessary for inhibiting ^3H radioactivity uptaken by the cell to 50% of that of the control group. The measurements were made in triplicate.

[5] = Homo sapiens, HT-29, inhibition of 3H-thymidine uptake

Row | SMILES | IC50 [1, 5] | fold induction at 0.1 µM [2] | fold induction at 0.1 µM [3] | IC50 ([4]; Homo sapiens, ACHN) | IC50 ([4]; inhibition of 3H-thymidine uptake, test substance 18 hrs, then 3H-thymidine 6 hrs, triplicate) | IC50 ([1]; inhibition of 3H-thymidine uptake) | Induction of p15 protein [2]
1 | Cc1cc(N(C)C)ccc1Nc1cc(=O)n(C)c2c1c(=O)n(C1CC1)c(=O)n2-c1ccccc1F [Example 1-142] | 100 to 1000 nM | ≥ 1.5 | ≥ 1.5 |  |  |  | 
2 | COc1ccc(Nc2cc(=O)n(C)c3c2c(=O)n(C2CC2)c(=O)n3-c2ccccc2)c(F)c1 [Example 1-175] | 100 to 1000 nM | ≥ 1.5 | ≥ 1.5 |  |  |  | 
3 | CC(C)N1CCC(Nc2cc(=O)n(C)c3c2c(=O)n(C2CC2)c(=O)n3-c2ccccc2)CC1 [Example 1-182] |  |  | ≥ 1.5 |  |  |  | 
4 | COc1ccc(-n2c(=O)n(C3CC3)c(=O)c3c(Nc4ccc(Br)cc4F)cc(=O)n(C)c32)cc1 [Example 1-186] | 10 to 100 nM | ≥ 1.5 | ≥ 1.5 |  |  |  | 
5 | Cn1c(=O)cc(Nc2ccc(Br)cc2F)c2c(=O)n(C3CC3)c(=O)n(-c3cccc(N4CCOCC4)c3)c21 [Example 1-193] | < 10 nM | ≥ 1.5 |  | 100 to 1000 nM |  |  | 
6 | CN(C)c1cccc(-n2c(=O)n(C3CC3)c(=O)c3c(Nc4ccc(Br)cc4F)cc(=O)n(C)c32)c1 [Example 1-199] | 10 to 100 nM | ≥ 1.5 |  | 100 to 1000 nM |  |  | 
7 | Cn1c(=O)c2c(Nc3ccc(Br)cc3Cl)cc(=O)n(C)c2n(-c2ccccc2)c1=O [Example 1-200] | 10 to 100 nM | ≥ 1.5 |  | 100 to 1000 nM |  |  | 
8 | CN(C)c1ccc(Nc2cc(=O)n(C)c3c2c(=O)n(C2CC2)c(=O)n3-c2cccc(N3CCOCC3)c2)c(F)c1 [Example 1-205] | < 10 nM | ≥ 1.5 |  | 100 to 1000 nM |  |  | 
9 | Cn1c(=O)cc(Nc2ccc(I)cc2F)c2c(=O)n(C3CC3)c(=O)n(-c3ccccc3)c21 [Example 1-207] | < 10 nM | ≥ 1.5 |  | 10 to 100 nM |  |  | 
10 | C#Cc1ccc(Nc2cc(=O)n(C)c3c2c(=O)n(C2CC2)c(=O)n3-c2ccccc2)c(F)c1 [Example 1-208] | < 10 nM | ≥ 1.5 |  | 10 to 100 nM |  |  | 
11 | Cn1c(=O)cc(Nc2ccc(Br)cc2F)c2c(=O)n(C3CC3)c(=O)n(-c3cccc(N4CCCC4=O)c3)c21 [Example 1-212] | < 10 nM | ≥ 1.5 |  | 100 to 1000 nM |  |  | 
12 | Cn1c(=O)cc(Nc2ccc(Br)cc2F)c2c(=O)n(C3CC3)c(=O)n(-c3cccc(O)c3)c21 [Example 1-213] | 10 to 100 nM | ≥ 1.5 |  | 100 to 1000 nM |  |  | 
13 | CN(C)CCOc1cccc(-n2c(=O)n(C3CC3)c(=O)c3c(Nc4ccc(Br)cc4F)cc(=O)n(C)c32)c1 [Example 1-218] | 10 to 100 nM | ≥ 1.5 | ≥ 1.5 |  |  |  | 
14 | Cn1c(=O)cc(Nc2ccc(Br)cc2F)c2c(=O)n(C3CC3)c(=O)n(-c3cccc(S(C)(=O)=O)c3)c21 [Example 1-223] | 10 to 100 nM | ≥ 1.5 |  | 100 to 1000 nM |  |  | 
15 | CN(c1cccc(-n2c(=O)n(C3CC3)c(=O)c3c(Nc4ccc(Br)cc4F)cc(=O)n(C)c32)c1)S(C)(=O)=O [Example 1-228] | 10 to 100 nM |  | ≥ 1.5 | 100 to 1000 nM |  |  | 
16 | CN(C)CC#Cc1ccc(Nc2cc(=O)n(C)c3c2c(=O)n(C2CC2)c(=O)n3-c2ccccc2)c(F)c1 [Example 1-246] | 10 to 100 nM | ≥ 1.5 |  | 100 to 1000 nM |  |  | 
17 | COCCN(C)c1cccc(-n2c(=O)n(C3CC3)c(=O)c3c(Nc4ccc(Br)cc4F)cc(=O)n(C)c32)c1 [Example 1-253] | 10 to 100 nM |  | ≥ 1.5 | 100 to 1000 nM |  |  | 
18 | C#Cc1ccc(Nc2cc(=O)n(C)c3c2c(=O)n(C2CC2)c(=O)n3-c2cccc(S(C)(=O)=O)c2)c(F)c1 [Example 1-259] | < 10 nM |  | ≥ 1.5 | 100 to 1000 nM |  |  | 
19 | C#Cc1ccc(Nc2cc(=O)n(C)c3c2c(=O)n(C2CC2)c(=O)n3-c2cccc(NS(C)(=O)=O)c2)c(F)c1 [Example 1-260] | < 10 nM |  | ≥ 1.5 | < 10 nM |  |  | 

Row | SMILES | IC50 [1, 5] | fold induction at 0.1 µM [2] | fold induction at 0.1 µM [3] | IC50 ([4]; Homo sapiens, ACHN) | IC50 ([4]; inhibition of 3H-thymidine uptake, test substance 18 hrs, then 3H-thymidine 6 hrs, triplicate) | IC50 ([1]; inhibition of 3H-thymidine uptake) | Induction of p15 protein [2]
20 | CCS(=O)(=O)Nc1cccc(-n2c(=O)n(C3CC3)c(=O)c3c(Nc4ccc(Br)cc4F)cc(=O)n(C)c32)c1 [Example 1-262] | < 10 nM |  | ≥ 1.5 | 10 to 100 nM |  |  | 
21 | Cn1c(=O)cc(Nc2ccc(Br)cc2F)c2c(=O)n(C3CC3)c(=O)n(-c3cccc(NC(=O)CO)c3)c21 [Example 1-263] | < 10 nM |  | ≥ 1.5 | 100 to 1000 nM |  |  | 
22 | CCS(=O)(=O)Nc1cccc(-n2c(=O)n(C3CC3)c(=O)c3c(Nc4ccc(I)cc4F)cc(=O)n(C)c32)c1 [Example 1-274] | < 10 nM |  | ≥ 1.5 | < 10 nM |  |  | 
23 | CCc1ccc(Nc2cc(=O)n(C)c3c2c(=O)n(C2CC2)c(=O)n3-c2cccc(NS(C)(=O)=O)c2)c(F)c1 [Example 1-275] | < 10 nM |  | ≥ 1.5 | 10 to 100 nM |  |  | 
24 | CCCC(=O)Nc1cccc(-n2c(=O)n(C3CC3)c(=O)c3c(Nc4ccc(Br)cc4F)cc(=O)n(C)c32)c1 [Example 1-279] | 10 to 100 nM |  | ≥ 1.5 | 100 to 1000 nM |  |  | 
25 | CCCCC(=O)NCCC(=O)Nc1cccc(-n2c(=O)n(C3CC3)c(=O)c3c(Nc4ccc(Br)cc4F)cc(=O)n(C)c32)c1 [Example 1-299] | 10 to 100 nM |  | ≥ 1.5 | 100 to 1000 nM |  |  | 
26 | Cn1c(=O)cc(Nc2ccc(I)cc2)c2c(=O)n(C3CC3)c(=O)n(-c3cccc(NS(C)(=O)=O)c3)c21 [Example 1-302] | < 10 nM |  | ≥ 1.5 | 10 to 100 nM |  |  | 
27 | Cn1c(=O)cc(Nc2ccc(Br)cc2F)c2c(=O)n(C3CC3)c(=O)n(-c3cccc(NCCN4CCOCC4)c3)c21 [Example 1-303] | 10 to 100 nM |  | ≥ 1.5 | 100 to 1000 nM |  |  | 
28 | CCNC(=O)Nc1cccc(-n2c(=O)n(C3CC3)c(=O)c3c(Nc4ccc(Br)cc4F)cc(=O)n(C)c32)c1 [Example 1-307] | 10 to 100 nM |  | ≥ 1.5 | 100 to 1000 nM |  |  | 
29 | CN(C)S(=O)(=O)Nc1cccc(-n2c(=O)n(C3CC3)c(=O)c3c(Nc4ccc(Br)cc4F)cc(=O)n(C)c32)c1 [Example 1-309] | < 10 nM |  | ≥ 1.5 | 10 to 100 nM |  |  | 
30 | C#Cc1ccc(Nc2cc(=O)n(C)c3c2c(=O)n(C2CC2)c(=O)n3-c2cccc(NC(C)=O)c2)c(F)c1 [Example 1-310] | < 10 nM |  | ≥ 1.5 | 10 to 100 nM |  |  | 
31 | CCCS(=O)(=O)Nc1cccc(-n2c(=O)n(C3CC3)c(=O)c3c(Nc4ccc(I)cc4F)cc(=O)n(C)c32)c1 [Example 1-311] | < 10 nM |  | ≥ 1.5 | < 10 nM |  |  | 
32 | CN1CCN(S(=O)(=O)c2cccc(-n3c(=O)n(C4CC4)c(=O)c4c(Nc5ccc(Br)cc5F)cc(=O)n(C)c43)c2)CC1 [Example 1-315] | 10 to 100 nM |  | ≥ 1.5 | 100 to 1000 nM |  |  | 
33 | Cn1c(=O)cc(Nc2ccc(Br)cc2F)c2c(=O)n(C3CC3)c(=O)n(-c3cccc(S(=O)(=O)N4CCOCC4)c3)c21 [Example 1-316] | 10 to 100 nM |  | ≥ 1.5 | 100 to 1000 nM |  |  | 
34 | C#Cc1ccc(Nc2cc(=O)n(C)c3c2c(=O)n(C2CC2)c(=O)n3-c2cccc(NS(=O)(=O)C(C)C)c2)c(F)c1 [Example 1-321] | < 10 nM | ≥ 1.5 |  | 10 to 100 nM |  |  | 
35 | Cc1c(Nc2ccc(Br)cc2F)c2c(=O)n(C3CC3)c(=O)n(-c3cccc(NS(C)(=O)=O)c3)c2n(C)c1=O [Example 1-333] | < 10 nM | ≥ 1.5 |  | 10 to 100 nM |  |  | 
36 | Cc1c(=O)n(C)c(Nc2ccc(I)cc2F)c2c(=O)n(C3CC3)c(=O)n(-c3ccc4c(c3)ncn4C)c12 [Example 4-111] | 10 to 100 nM | ≥ 1.5 |  | 100 to 1000 nM |  |  | 
37 | Cc1c(=O)n(C)c(Nc2ccc(I)cc2F)c2c(=O)n(C3CC3)c(=O)n(-c3ccc4c(c3)ncn4C)c12 [Example 4-112] |  |  |  |  | 100 to 1000 nM | < 10 nM | + (As compared to DMSO, not less than 1.5-fold induction of p15 protein)
